Data from patent publication US20020198215A1 (priority 2000, published 2002).

Tests used:
[1] = after oral administration; cited from earlier work
[2] = Calculation of the release rate for a terazosin transdermal delivery system from literature pharmacokinetic data; conditions: product of steady state concentration and clearance rate
Text: Therefore, an equal dose is required to be delivered transdermally. […] The largest desirable surface area for a transdermal patch is about 40 cm^2. […] To account for drug elimination, further pharmacokinetic data and physiological data was required. […] The largest desirable surface area for a transdermal patch is about 40 cm^2. […] One of skill would expect a different input rate or flux to maintain a steady state concentration in consideration of the rate of loss of drug in the plasma due to elimination. A confirmatory calculation for flux requires further pharmacokinetic parameters. […] The largest desirable surface area for a transdermal patch is about 40 cm^2. […], yields a release rate of […] of transdermal patch surface area.

[3] = cited from earlier work
plasma proteins = conditions: cited from earlier work
[4] = terazosin therapy; cited from earlier work

dosing rate [2]: 216 µg/h
SMILES: COc1cc2nc(N3CCN(C(=O)C4CCCO4)CC3)nc(N)c2cc1OC (stereo not drawn) [terazosin, Terazosin]
time until antihypertensive effects are seen [1]: ≤ 15 min | removed during hemodialysis ([3]; hemodialysis): 10% | effect of impaired renal function on elimination ([3]; impaired renal function): no significant effect | dose excreted renally as unchanged drug ([3]; in vivo): 10% | physiological clearance rate ([3]; in vivo): 4,800 ml/hour | plasma concentration at steady state ([3]; in vivo): 45 ng/mL | first-pass effect ([3]; oral administration): minimal first-pass effect | time of peak plasma levels after administration ([3]; oral administration): about 1 hour | bioavailability ([3]; oral dose, gastrointestinal absorption): 90% | effect of food on terazosin bioavailability ([3]; oral, presence of food): no significant effect | delay of time to peak concentrations by food ([3]; oral, with food): about 1 hour | plasma drug concentrations versus dosage ([3]; treatments from 1 to 5 days, dosages up to 40 mg): increased proportionately | bound to plasma proteins (plasma proteins): 90-94% | adverse effect: asthenia (weakness, tiredness, and fatigue) [4]: 11% | adverse effect: dizziness [4]: 19% | adverse effect: drowsiness [4]: 5% | adverse effect: headache [4]: 16% | adverse effect: nasal congestion [4]: 6% | adverse effect: nausea/vomiting [4]: 4.4% | adverse effect: peripheral edema [4]: 6%
